# Source: patent publication US11746087B1, “C4-carboxylic acid-substituted tryptamine derivatives and methods of using” (priority 2022, dated 2023)
# pEC50, pIC50: −log10 of the molar value.
# Legend:
# [1] = biological target: T1, 5-HT2A receptor (Mus musculus, UniProt P35363); assay: Drug-induced Head Twitch Response (HTR); type: in vivo; conditions: C57BL/6 mice; 1 mg/kg i.p.; 15-to-30-minute window after administration
# T1 construct: 8-week old C57BL/6-Elite male and female mice were obtained from Charles River; tissue Charles River; host or cells: living C57BL/6-Elite mice (neuronal receptor, in vivo)
# [2] = biological target: T2, ADRA1A (Homo sapiens, UniProt P35348); assay: Calcium secondary messenger assay, agonist mode; type: cell-based
# T2 sequence (P35348 1-466): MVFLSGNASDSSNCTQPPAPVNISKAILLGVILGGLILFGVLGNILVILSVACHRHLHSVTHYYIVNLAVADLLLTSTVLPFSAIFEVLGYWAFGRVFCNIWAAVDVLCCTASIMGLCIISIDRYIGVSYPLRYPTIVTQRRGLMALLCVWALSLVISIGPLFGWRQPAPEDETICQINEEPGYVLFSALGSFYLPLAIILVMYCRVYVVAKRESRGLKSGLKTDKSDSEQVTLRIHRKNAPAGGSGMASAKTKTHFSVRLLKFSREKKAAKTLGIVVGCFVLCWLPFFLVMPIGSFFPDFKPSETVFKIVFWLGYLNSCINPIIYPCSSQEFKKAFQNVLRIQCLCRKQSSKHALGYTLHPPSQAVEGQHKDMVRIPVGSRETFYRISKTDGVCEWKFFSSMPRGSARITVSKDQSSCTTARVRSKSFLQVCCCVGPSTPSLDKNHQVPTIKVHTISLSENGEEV
# [3] = biological target: T2, ADRA1A; assay: Calcium secondary messenger assay, antagonist mode; type: cell-based
# [4] = biological target: T3, ADRA2A (Homo sapiens, UniProt P08913); assay: EFC-based cAMP secondary messenger assay, antagonist mode; type: cell-based
# T3 sequence (P08913 1-465): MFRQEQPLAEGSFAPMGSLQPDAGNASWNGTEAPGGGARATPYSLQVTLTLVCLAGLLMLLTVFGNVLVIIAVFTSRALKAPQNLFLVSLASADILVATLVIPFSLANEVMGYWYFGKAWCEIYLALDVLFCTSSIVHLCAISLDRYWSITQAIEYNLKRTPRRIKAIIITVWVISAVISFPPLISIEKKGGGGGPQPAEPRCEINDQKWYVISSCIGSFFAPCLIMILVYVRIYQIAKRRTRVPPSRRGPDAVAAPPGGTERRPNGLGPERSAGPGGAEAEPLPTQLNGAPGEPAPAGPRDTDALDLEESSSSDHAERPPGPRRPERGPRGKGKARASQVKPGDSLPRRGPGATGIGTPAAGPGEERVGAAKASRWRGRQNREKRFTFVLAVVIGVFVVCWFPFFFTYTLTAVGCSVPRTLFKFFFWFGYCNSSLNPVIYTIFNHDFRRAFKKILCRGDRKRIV
# [5] = biological target: AVPR1A (Homo sapiens, UniProt P37288); assay: Calcium secondary messenger assay, antagonist mode; type: cell-based
# [6] = biological target: T4, CHRM1 (Homo sapiens, UniProt P11229); assay: Calcium secondary messenger assay, agonist mode; type: cell-based
# T4 sequence (P11229 1-460): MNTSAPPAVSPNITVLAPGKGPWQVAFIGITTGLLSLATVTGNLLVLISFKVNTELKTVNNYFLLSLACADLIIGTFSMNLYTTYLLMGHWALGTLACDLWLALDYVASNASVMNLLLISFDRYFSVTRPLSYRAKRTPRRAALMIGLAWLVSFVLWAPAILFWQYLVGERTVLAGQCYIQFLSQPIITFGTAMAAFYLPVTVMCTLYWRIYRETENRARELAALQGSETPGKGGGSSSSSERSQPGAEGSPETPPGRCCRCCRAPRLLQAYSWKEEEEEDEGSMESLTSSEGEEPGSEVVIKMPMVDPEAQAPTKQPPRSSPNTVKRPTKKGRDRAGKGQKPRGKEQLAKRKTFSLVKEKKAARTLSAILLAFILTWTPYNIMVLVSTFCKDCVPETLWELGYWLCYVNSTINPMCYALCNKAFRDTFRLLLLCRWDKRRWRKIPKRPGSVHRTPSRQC
# [7] = biological target: T4, CHRM1; assay: cell-based
# [8] = biological target: T5, CHRM2 (Homo sapiens, UniProt P08172); assay: EFC-based cAMP secondary messenger assay, antagonist mode; type: cell-based
# T5 sequence (P08172 1-466): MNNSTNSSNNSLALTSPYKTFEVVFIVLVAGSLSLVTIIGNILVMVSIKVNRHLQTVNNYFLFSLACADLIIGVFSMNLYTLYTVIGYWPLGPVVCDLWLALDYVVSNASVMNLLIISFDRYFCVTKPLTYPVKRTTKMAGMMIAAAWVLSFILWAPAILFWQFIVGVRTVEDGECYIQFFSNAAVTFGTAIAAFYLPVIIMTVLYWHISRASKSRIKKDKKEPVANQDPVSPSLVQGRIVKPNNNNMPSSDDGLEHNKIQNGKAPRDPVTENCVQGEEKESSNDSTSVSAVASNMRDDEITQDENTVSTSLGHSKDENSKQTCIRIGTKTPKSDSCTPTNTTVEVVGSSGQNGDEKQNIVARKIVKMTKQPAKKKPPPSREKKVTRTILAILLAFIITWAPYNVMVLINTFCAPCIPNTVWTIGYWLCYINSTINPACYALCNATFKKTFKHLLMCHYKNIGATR
# [9] = biological target: CNR1 (Homo sapiens, UniProt P21554); assay: EFC-based cAMP secondary messenger assay, agonist mode; type: cell-based
# [10] = biological target: DRD1 (Homo sapiens, UniProt P21728); assay: EFC-based cAMP secondary messenger assay, antagonist mode; type: cell-based
# [11] = biological target: DRD2S (Homo sapiens, UniProt P14416); assay: as above; type: cell-based
# [12] = biological target: HTR1B (5-HTR1B) (Homo sapiens, UniProt P28222); assay: as above; type: cell-based
# [13] = biological target: NET (Homo sapiens, UniProt P23975); assay: Neurotransmitter transporter uptake assay, blocker; type: cell-based
# [14] = biological target: SERT (Homo sapiens, UniProt P31645); assay: cell-based; conditions: transporter
# [15] = biological target: NMDAR (Homo sapiens, UniProt Q05586+Q13224); assay: Ion channel assay (FLIPR membrane potential), opener; type: cell-based
# NMDAR, sequence (Q13224 27-1484, other chains not shown): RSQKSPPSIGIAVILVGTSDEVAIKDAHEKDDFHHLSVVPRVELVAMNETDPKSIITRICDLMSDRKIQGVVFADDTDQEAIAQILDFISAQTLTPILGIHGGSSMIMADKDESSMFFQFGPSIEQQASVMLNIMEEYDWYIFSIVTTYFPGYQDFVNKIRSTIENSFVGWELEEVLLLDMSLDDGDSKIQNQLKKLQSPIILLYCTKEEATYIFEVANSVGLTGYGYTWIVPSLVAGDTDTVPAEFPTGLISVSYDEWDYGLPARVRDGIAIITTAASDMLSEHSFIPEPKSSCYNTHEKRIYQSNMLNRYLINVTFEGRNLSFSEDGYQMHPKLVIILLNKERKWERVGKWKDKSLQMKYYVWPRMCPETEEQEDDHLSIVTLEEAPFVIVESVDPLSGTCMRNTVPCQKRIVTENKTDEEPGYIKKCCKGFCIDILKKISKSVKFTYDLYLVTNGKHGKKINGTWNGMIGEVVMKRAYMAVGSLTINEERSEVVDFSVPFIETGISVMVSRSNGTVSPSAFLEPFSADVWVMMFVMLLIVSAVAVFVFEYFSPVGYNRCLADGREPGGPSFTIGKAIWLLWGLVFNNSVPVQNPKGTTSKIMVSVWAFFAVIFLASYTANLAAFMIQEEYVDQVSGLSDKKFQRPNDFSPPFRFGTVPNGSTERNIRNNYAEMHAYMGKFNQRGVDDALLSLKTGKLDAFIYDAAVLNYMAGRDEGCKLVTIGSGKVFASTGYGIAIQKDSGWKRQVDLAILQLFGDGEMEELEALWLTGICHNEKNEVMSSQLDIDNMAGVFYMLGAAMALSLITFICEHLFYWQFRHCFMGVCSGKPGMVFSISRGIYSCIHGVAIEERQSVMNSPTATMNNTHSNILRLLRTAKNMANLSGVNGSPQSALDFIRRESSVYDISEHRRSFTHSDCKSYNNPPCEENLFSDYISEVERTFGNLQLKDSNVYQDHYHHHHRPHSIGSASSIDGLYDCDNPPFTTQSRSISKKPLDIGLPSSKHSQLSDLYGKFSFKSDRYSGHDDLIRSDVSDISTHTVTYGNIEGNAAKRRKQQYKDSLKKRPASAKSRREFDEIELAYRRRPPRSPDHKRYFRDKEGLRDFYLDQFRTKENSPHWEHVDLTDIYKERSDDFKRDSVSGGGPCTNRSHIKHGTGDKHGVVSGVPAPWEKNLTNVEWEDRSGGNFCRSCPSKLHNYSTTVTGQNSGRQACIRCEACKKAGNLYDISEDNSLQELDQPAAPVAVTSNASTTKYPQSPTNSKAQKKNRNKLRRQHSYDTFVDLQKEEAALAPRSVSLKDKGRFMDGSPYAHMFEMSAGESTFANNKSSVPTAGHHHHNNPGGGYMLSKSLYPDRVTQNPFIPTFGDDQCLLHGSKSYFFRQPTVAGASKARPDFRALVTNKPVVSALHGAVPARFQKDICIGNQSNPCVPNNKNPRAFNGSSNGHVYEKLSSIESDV
# DRD1, sequence (P21728 whole entry): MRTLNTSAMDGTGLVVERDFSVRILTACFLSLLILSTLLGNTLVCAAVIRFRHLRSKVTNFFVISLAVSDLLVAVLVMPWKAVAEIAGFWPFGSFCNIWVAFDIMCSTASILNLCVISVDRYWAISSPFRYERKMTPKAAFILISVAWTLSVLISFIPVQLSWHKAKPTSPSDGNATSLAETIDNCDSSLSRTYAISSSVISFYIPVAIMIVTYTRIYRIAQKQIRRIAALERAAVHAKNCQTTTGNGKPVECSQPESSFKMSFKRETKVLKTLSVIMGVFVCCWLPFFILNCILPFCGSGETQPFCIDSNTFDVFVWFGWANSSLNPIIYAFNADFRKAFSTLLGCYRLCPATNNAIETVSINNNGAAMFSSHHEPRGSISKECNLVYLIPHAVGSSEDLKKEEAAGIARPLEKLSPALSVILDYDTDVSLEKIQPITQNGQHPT
# SERT, sequence (P31645 whole entry): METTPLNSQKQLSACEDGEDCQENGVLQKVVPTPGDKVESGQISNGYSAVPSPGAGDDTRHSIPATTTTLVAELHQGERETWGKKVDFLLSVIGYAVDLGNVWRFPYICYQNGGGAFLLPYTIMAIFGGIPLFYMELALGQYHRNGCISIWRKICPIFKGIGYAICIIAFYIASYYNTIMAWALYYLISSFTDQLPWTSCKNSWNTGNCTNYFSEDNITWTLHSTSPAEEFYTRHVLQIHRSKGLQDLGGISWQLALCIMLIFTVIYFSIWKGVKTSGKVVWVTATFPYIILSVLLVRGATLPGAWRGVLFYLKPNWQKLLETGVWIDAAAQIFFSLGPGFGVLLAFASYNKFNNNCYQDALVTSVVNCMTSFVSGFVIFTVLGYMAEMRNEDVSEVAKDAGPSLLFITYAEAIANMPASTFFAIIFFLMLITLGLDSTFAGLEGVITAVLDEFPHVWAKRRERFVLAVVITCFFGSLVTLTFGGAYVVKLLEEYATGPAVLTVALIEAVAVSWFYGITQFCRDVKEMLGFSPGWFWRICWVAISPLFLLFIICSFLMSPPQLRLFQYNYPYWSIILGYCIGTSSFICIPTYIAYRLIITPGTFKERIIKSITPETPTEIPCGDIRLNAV
# DRD2S, sequence (P14416 1-414 isoform P14416-2): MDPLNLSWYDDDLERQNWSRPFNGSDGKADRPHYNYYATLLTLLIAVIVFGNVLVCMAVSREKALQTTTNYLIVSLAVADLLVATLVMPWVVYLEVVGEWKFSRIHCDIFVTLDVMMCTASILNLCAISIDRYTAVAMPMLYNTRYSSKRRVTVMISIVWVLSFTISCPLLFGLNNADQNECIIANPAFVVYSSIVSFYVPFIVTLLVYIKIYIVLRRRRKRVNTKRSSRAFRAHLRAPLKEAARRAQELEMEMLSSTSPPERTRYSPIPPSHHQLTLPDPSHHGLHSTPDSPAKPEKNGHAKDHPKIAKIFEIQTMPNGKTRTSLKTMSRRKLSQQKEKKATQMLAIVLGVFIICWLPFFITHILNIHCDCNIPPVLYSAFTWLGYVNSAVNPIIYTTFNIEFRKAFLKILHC
# HTR1B (5-HTR1B), sequence (P28222 whole entry): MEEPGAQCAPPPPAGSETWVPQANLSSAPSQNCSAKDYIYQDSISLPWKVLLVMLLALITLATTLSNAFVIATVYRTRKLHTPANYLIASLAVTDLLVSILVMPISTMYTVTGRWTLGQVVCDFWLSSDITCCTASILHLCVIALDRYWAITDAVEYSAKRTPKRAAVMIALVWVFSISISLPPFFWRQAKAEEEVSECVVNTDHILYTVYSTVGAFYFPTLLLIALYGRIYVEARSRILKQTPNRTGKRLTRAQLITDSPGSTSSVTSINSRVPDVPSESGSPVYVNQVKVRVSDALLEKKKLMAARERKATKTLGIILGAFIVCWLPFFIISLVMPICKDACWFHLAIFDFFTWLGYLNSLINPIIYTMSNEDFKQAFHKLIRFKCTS
# T1 sequence (P35363 whole entry): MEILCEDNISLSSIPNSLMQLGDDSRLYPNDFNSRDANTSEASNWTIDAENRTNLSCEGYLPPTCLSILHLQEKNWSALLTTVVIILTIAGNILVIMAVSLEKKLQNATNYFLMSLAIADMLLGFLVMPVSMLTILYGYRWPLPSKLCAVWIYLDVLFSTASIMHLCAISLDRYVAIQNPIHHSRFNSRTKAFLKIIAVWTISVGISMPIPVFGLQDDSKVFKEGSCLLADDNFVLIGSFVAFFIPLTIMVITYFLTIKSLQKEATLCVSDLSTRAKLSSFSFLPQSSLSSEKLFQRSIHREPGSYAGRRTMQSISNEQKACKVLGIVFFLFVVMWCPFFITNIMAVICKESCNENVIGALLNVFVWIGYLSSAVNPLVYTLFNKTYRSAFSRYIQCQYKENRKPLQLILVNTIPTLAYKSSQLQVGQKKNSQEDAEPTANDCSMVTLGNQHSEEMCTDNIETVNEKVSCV
# NET, sequence (P23975 whole entry): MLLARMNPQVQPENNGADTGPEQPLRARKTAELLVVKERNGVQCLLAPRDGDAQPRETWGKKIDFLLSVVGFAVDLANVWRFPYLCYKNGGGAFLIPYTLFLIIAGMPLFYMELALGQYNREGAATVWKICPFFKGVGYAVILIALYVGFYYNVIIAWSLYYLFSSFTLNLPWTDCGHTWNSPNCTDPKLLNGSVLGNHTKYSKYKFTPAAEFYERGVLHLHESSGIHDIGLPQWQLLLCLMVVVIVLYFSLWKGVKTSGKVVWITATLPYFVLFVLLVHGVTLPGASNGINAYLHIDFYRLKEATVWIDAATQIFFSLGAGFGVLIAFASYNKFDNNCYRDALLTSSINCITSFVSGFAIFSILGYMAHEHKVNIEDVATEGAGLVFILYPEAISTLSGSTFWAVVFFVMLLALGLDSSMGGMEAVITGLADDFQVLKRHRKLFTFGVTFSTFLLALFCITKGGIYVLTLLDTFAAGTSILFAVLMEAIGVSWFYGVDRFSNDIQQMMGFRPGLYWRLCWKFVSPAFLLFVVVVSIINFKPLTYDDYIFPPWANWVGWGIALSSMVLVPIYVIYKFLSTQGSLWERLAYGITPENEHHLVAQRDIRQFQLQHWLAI
# AVPR1A, sequence (P37288 whole entry): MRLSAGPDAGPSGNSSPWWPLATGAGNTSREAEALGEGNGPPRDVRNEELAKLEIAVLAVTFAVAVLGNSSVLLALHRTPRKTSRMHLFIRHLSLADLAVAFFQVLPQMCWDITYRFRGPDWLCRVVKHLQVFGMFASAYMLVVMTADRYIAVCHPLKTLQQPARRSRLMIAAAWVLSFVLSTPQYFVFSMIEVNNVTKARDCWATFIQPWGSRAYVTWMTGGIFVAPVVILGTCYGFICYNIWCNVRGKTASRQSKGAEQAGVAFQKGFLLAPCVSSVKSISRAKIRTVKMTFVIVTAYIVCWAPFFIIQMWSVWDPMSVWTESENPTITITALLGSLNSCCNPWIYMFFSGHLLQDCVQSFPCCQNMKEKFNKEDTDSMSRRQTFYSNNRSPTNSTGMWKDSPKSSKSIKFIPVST
SMILES,Head Twitch Response (HTR) incidence relative to vehicle [1],pEC50 [2],pIC50 [3],pIC50 [4],pIC50 [5],pEC50 [6],"pIC50 ([7]; CHRM1, GPCR, antagonist (ANT))",pIC50 [8],pEC50 [9],pIC50 [10],pIC50 [11],pIC50 [12],pIC50 [13],pIC50 ([14]; blocker (BL)),pEC50 [15],"pIC50 ([7]; CHRM1, GPCR, ANT (antagonist))",pIC50 ([14]; BL (blocker))
COc1ccc(C(=O)Oc2cccc3[nH]cc(CCN(C)C)c23)cc1 [C(V)],Elevated incidences of HTR,< 4.00,4.83,< 4.00,< 4.00,< 4.00,< 4.00,< 4.00,< 4.00,4.92,5.75,< 4.00,< 4.00,< 4.00,< 4.00,,
CN(C)CCc1c[nH]c2cccc(OC(=O)CC3CC3)c12 [C(IV)],Elevated incidences of HTR,< 4.00,4.58,< 4.00,< 4.00,< 4.00,,< 4.00,< 4.00,4.48,< 4.00,< 4.00,< 4.00,,< 4.00,< 4.00,4.17
CN(C)CCc1c[nH]c2cccc(OC(=O)c3ccc(Br)cc3)c12 [C(I)],Elevated incidences of HTR,< 4.00,5.18,4.73,< 4.00,< 4.00,,4.31,4.27,4.61,4.04,< 4.00,4.33,,< 4.00,4.64,< 4.00
CN(C)CCc1c[nH]c2cccc(OC(=O)c3cccc4c3OCCO4)c12 [C(XX)],Elevated incidences of HTR,< 4.00,5.28,4.32,< 4.00,< 4.00,,< 4.00,< 4.00,4.95,< 4.00,< 4.00,4.82,,< 4.00,< 4.00,4.83
CN(C)CCc1c[nH]c2cccc(OC(=O)c3c(F)c(F)c(F)c(F)c3F)c12 [C(VI)],Elevated incidences of HTR,4.46,4.57,< 4.00,< 4.00,< 4.00,,< 4.00,4.20,4.29,< 4.00,< 4.00,< 4.00,,< 4.00,< 4.00,4.46
